This note sets out measurements from patent US20050163801A1, “Method of inducing apoptosis and compositions therefor” (Kyowa Engineering Co., Ltd., priority 2001, published 2005).

What all share (assay type): cell-based
Assay [1] has as its system HL60 cell line. Nature of the assay: Cell growth suppression activity (Test 1), cell number by counting chamber. The procedure: 1. Cell growth suppression activity (Test 1): For assay, the Collagen gel droplet embedded culture-drug sensitivity test (CD-DST method) and a counting chamber were used.
A method using a counting chamber was performed following the method described in Rinsho Kensaho Teiyo (Kanai's Manual of Clinical Laboratory Medicine), 30th Ed. (Aug. 20, 1993; Kanehara & Co., Ltd.; Tokyo).
Based on the results of measurement using HL60 cell lines, it became clear that the CD-DST method is not suitable for measuring the growth state of suspended cells. Therefore, the cell growth suppression activity was measured using a counting chamber.
First, growth of HL60 cell lines was examined in the presence of ABMK-22 at various concentrations to obtain a growth curve of the HL60 line. More specifically, an initial number of cells of HL 60 cell lines was set to be 200,000/ mL. ABMK-22 was added to have concentrations of 0.1, 0.25, 0.5, 0.75, 1, 2, 2.5, 3, 4and 5 mg/1 mL, respectively and cultured. The number of the cells was measured over time for four days.
Each of the symbols in FIG. 1 indicates the result of measurement of the number of the cells (number/ml) in the presence of ABMK-22 at the concentration of the number indicated in the lower part of FIG. 1 by the symbols. […]

The test system of a further assay is HL-60 cell lines. Nature of the assay: Apoptosis inducing activity (Test 3), TUNEL method. Conditions: culture for two days. The procedure: 3. Apoptosis inducing activity (Test 3): Measurement was performed using a terminal deoxynucleotidyl transferase (TdT)-mediated deoxyuridine triphosphate (dUTP)-biotin nick end-labeling method (TUNEL method). The TUNEL method is a method for identifying apoptosis on a tissue slice reported by Gavrieli et al. in 1992 (Yael Gavrieli et al., The Journal of Cell Biology, vol. 119, No.3, November, 1992, p. 493-501). The method is known to be a method which enables observation of apoptosis at the individual cell level at various states of morbidity and allows comparison with morphology changes. The TUNEL method was performed with HL-60 cell lines using Apoptosis in situ Detection Kit wako (Wako Pure Chemical Industries, Ltd.), according to the method of Gavrieli et al., supra.
The results of FIG. 9 show results measured for respective test groups. […] Based on the above results, cell death of HL60 cell lines by ABMK-22 are confirmed to be death caused by the induction of apoptosis.
For identifying the ingredient having the apoptosis induction activity in ABMK-22 obtained in Example 2, ABMK-22 was further purified and fractionated. The obtained ingredient was subjected to the method described in section “3. […]
Next, the apoptosis induction activity of a ly-ophilized powder of ABMK0415 and ABMK6873 were measured as described in section “3. […]

The subject of assay [2] is dendric cells (DC) derived from human peripheral blood monocytes. Briefly: Immune activation activity: induction of dendritic cells from peripheral blood monocytes, CD80 expression by flow cytometry. As to conditions: for DCs with increase in expression of CD80: analysed on seventh day. The text has this:
Dendritic cells are involved in the establishment of immunity. Dendritic cells may also be called arborescent cells, dendritic leukocyte, or D cells. This is the generic term for cell groups having dendritic form derived from myelocytes distributed in various tissue organs in the living body except for the brain. The cell groups include lymphoid dendritic cells, Langerhans cells, veil cells, inter-connected cells, and interstitional cells. Accompanying an inflammation response caused by invasion of foreign matter, the cells perform pinocytosis, and move from a local spot via the vas afferens to an associated lymph node or to the spleen through bloodstream. The cells are known to start an immune response after they reach a T cell-dependent region by presenting an antigen in a form combined with class II antigen and by activating specific T cells. Namely, the cells play an important role in the immune system. In the present example, the immune activation activity of ABMK0415 and ABMK6873 were confirmed by assaying the induction power of monocytes to dendritic cells.
Peripheral blood of two healthy people was used as a material with donor consent.
PBMC were separated from a whole blood specimen which was collected with heparinization by a Ficoll-Paque density centrifugal separation method.
ABMK0415 and ABMK6873 were used as test samples. ABMK0415 and ABMK6873 were respectively dissolved in culture media of cells used for tests (10% FCS added RPMI-1640, 5% human AB serum added RPMI-1640) such that each mixture has a concentration of 200 mg/ml. The mixtures were filter-sterilized through a filter having a pore diameter of 0.22 μm to obtain test samples.
An effect of immune activation of novel compounds was examined in vittro through induction power for dendric cells (DC) derived from human peripheral blood monocytes.
PBMC was processed with a dish treatment for one hour with a carbon dioxide gas incubator. Thus, a monocyte-rich attachment cell fraction was obtained. The cells obtained were cultured in 5% human AB serum added RPMI-1640 (NIKKEN BIOLOGICAL MEDICAL RESEARCH), in the presence of 500 U/ml of GM-CSF (DIACLONE Research) and IL-4(BD Biosciences).
For culturing, a dish (NUNC) having a diameter of 3.5 cm was used. On the sixth day of culture, Picibanil and the novel compound were added such that the final concentration is 0.1 KE/ml for Picibanil, and 200 μg/ml for ABMK0415and ABMK6873. Picibanil (Chugai Pharmaceutical Co., Ltd.) was used as a positive control which has a DC induction power. […]
All DCs in the dish were collected on the seventh day after the culture started. The surface antigen thereof was analyzed by flow cytometry using a monoclonal antibody (anti-CD80; BD Bioscience). […]
Background: A flow cytometer gives signals particle by particle.

For assay [3], the system named is HL60 cell line. Briefly: Cell differentiation inducing activity (Test 2), NBT reduction. As to conditions: used by itself; NBT reducing power. The procedure: 2. Cell differentiation inducing activity (Test 2): Evaluation was made using Nitro blue tetrazolium (NBT) reduction power. NBT reduction was performed in accordance with the method of S. J. Collins et al. (Int. J. Cancer: 25, pages 213-218 (1980)). In brief, the method is as follows: about 2×10^5 HL60 cells were pelleted, and washed in RPMI-1640 medium. Then, the cells were suspended in RPMI-1640 medium containing 0.1% NBT and 100 ng/ml of phorbol ester (TPA), and cultured for forty minutes at 37° C. The resultant culture was observed under microscope and cells containing blue-black deposits were assessed as differentiated cells. In the presence of ABMK-22 at various concentrations, HL60 cells were cultured for four days and the differentiation inducing power of ABMK-22 was measured. The results of measuring NBT reducing power, which is an indicator of differentiation of a HL60 cell line under each concentration, are shown in FIG. 7. […] At a concentration of 4 mg/mL, about 33% of the cells that were alive were differentiated.

With `N[C@@H](CCC(=O)NNc1ccc(C=O)cc1)C(=O)O` [ABMK6873], the “growth of HL-60 cells” value in the assay with HL60 cell line [1] (2.7×10^−4M) is on record as “remarkably suppressed”. Moreover, the “growth of HL-60 cells” value in the assay on HL60 cell line [1] (various concentrations (2.07×10^−6M to 2.07×10^−4M ABMK0415; 2.7×10^−6M to 2.7×10^−4M ABMK6873)) is recorded as “suppress growth of HL-60 cells in nearly a concentration-dependent manner”. In addition, the “cells in which apoptosis was induced (apoptosis positive cells)” value with HL-60 cell lines (2.7×10^−4M) is reported as “about 70%”. For the same molecule, in assay [2] (200 μg/ml added on sixth day), the “expression induction of CD80 molecules” value was “remarkably strong expression induction of CD80 molecules” and the “DCs with increase in expression of CD80” value was “about 92%”. Moreover, the DC inducing power result in assay [2] (compared with Picibanil) is on record as “stronger than that of Picibanil”.
Regarding `O=Cc1ccc(CO)n1CCCC(=O)O` [ABMK0415, N-(3-carboxypropyl)-2-formyl-5-hydroxy-methylpyrrole], the “cells in which apoptosis was induced (apoptosis positive cells)” value in the assay with HL-60 cell lines (2.07×10^−4M) is listed as “about 35%”. Also, the “DCs with increase in expression of CD80” value in assay [2] (200 μg/ml added on sixth day) is recorded as “about 20%”.
`C=C1/C(=C\C=C2/CCC[C@]3(C)[C@@H]([C@H](C)CCCC(C)(C)O)CC[C@@H]23)C[C@@H](O)C[C@@H]1O` [VD3, 1α, 25(OH)2D3]: in the assay with HL60 cell line [3], the “concentration at which the agent by itself does not exhibit cell differentiation induction activity” value was ≤ 10^−10 M.
As to `CC1=C(/C=C/C(C)=C/C=C/C(C)=C/C(=O)O)C(C)(C)CCC1` [ATRA, all-trans retinoic acid], the “concentration at which the agent by itself does not exhibit cell differentiation induction activity” value in the assay with HL60 cell line [3] is ≤ 10^−9 M.
